Reference: patent publication US5858992A, “Non-reducing saccharides, their preparation and use” (Kabushiki Kaisha Hayashibara Seibutsu Kagaku Kenkyujo, priority 1995, dated 1999)

Assays:
Salivary amylase = target: T1, Salivary amylase (Homo sapiens, UniProt P0DUB6); assay: in vitro
T1 sequence (P0DUB6 16-511): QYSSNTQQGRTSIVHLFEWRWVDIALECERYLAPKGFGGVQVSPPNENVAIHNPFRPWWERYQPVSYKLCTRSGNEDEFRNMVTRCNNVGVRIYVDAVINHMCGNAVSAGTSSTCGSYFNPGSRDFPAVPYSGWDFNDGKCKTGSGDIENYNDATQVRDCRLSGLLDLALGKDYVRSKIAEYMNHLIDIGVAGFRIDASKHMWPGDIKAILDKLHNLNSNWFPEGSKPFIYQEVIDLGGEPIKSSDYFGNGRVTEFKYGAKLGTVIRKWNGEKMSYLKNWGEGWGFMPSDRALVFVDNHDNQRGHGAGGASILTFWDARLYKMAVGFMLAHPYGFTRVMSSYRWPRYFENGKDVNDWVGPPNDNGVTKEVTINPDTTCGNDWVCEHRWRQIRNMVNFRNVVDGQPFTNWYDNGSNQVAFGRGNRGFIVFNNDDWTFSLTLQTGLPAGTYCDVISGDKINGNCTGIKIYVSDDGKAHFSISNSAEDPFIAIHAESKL

in vitro = conditions: gastric acid
Pancreatic juice amylase = target: T2, Pancreatic juice amylase (Homo sapiens, UniProt P04746); assay: in vitro
T2 sequence (P04746 16-511): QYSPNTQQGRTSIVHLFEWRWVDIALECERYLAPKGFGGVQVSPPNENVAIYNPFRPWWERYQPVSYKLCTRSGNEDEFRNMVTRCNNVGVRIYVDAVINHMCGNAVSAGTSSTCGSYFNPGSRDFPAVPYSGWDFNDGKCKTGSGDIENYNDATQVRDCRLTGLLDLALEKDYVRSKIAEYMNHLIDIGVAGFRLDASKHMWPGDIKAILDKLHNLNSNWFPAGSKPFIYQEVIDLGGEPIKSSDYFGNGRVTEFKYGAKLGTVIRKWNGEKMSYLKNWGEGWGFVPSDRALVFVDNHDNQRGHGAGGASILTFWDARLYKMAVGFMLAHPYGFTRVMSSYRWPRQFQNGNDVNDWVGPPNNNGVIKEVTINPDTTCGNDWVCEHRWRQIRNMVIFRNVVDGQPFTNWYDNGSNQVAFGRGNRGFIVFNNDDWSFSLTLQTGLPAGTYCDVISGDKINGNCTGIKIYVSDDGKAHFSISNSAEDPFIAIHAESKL

[1] = Maillard reaction (coloration with glycine); assay type: physicochemical; conditions: 10 w/v % saccharide, one w/v % glycine, 50 mM phosphate buffer pH 7.0, 100° C. for 90 min, 1-cm light-path cell
[2] = system: Bifidobacterium longum JCM 1217; assay: Assimilation test by intestinal microorganism; assay type: cell-based; conditions: 0.5 w/v % saccharide in PYF broth, 37° C., 96 hours; free of sugar: -
[3] = system: Clostridium perfringens JCM 3816; assay type: cell-based; conditions: 0.5 w/v % saccharide in PYF broth, 37° C., 96 hours; free of sugar: -
[4] = system: Peptostreptococcus prevotii ATCC 9321; assay: Assimilation test by intestinal microorganism; assay type: cell-based; conditions: 0.5 w/v % saccharide in PYF broth, 37° C., 96 hours; free of sugar: -
Acute toxicity test = assay type: in vivo; conditions: oral, mice; for LD50: mouse, in vivo
Source text: As a result, no mouse died even when administered with a highest possible dose. This means that the LD50 is 50 g/kg mouse or more and concludes that it is extremely low in toxicity.

[5] = system: Streptococcus sobrinus ATCC 27351; assay: Acid formation by dental caries-inducing microorganisms; conditions: for pH at each fermentation time (min): living wet cells, 0.02M saccharide, Stephen buffer pH 7.0, 37° C.
[6] = system: Bifidobacterium adolescentis JCM 1275; assay: Assimilation test by intestinal microorganism; assay type: cell-based; conditions: 0.5 w/v % saccharide in PYF broth, 37° C., 96 hours; free of sugar: -
[7] = system: Bifidobacterium animalis JCM 1190; assay: Assimilation test by intestinal microorganism; assay type: cell-based; conditions: 0.5 w/v % saccharide in PYF broth, 37° C., 96 hours; free of sugar: -
[8] = system: Bifidobacterium bifidum JCM 1255; assay: Assimilation test by intestinal microorganism; assay type: cell-based; conditions: 0.5 w/v % saccharide in PYF broth, 37° C., 96 hours; free of sugar: -
[9] = system: Bifidobacterium breve JCM 1192; assay: Assimilation test by intestinal microorganism; assay type: cell-based; conditions: 0.5 w/v % saccharide in PYF broth, 37° C., 96 hours; free of sugar: -
[10] = system: Bifidobacterium infantis JCM 1222; assay: Assimilation test by intestinal microorganism; assay type: cell-based; conditions: 0.5 w/v % saccharide in PYF broth, 37° C., 96 hours; free of sugar: -
[11] = system: Lactobacillus fermentum IFO 3959; assay: Assimilation test by intestinal microorganism; assay type: cell-based; conditions: 0.5 w/v % saccharide in PYF broth, 37° C., 96 hours; free of sugar: -
[12] = system: Lactobacillus plantarum IFO 3070; assay: Assimilation test by intestinal microorganism; assay type: cell-based; conditions: 0.5 w/v % saccharide in PYF broth, 37° C., 96 hours; free of sugar: -
[13] = system: Eubacterium aerofaciens ATCC 25986; assay: Assimilation test by intestinal microorganism; assay type: cell-based; conditions: 0.5 w/v % saccharide in PYF broth, 37° C., 96 hours; free of sugar: -
[14] = system: Bacteroides distasonis JCM 5825; assay: Assimilation test by intestinal microorganism; assay type: cell-based; conditions: 0.5 w/v % saccharide in PYF broth, 37° C., 96 hours; free of sugar: -
[15] = system: Bacteroides vulgatus JCM 5826; assay: Assimilation test by intestinal microorganism; assay type: cell-based; conditions: 0.5 w/v % saccharide in PYF broth, 37° C., 96 hours; free of sugar: -
[16] = system: Bacteroides uniformis JCM 5828; assay: Assimilation test by intestinal microorganism; assay type: cell-based; conditions: 0.5 w/v % saccharide in PYF broth, 37° C., 96 hours; free of sugar: -
[17] = system: Clostridium butyricum JCM 1391; assay type: cell-based; conditions: 0.5 w/v % saccharide in PYF broth, 37° C., 96 hours; free of sugar: -
[18] = system: Clostridium ramosum JCM 1298; assay: Assimilation test by intestinal microorganism; assay type: cell-based; conditions: 0.5 w/v % saccharide in PYF broth, 37° C., 96 hours; free of sugar: -
[19] = system: Streptococcus faecalis IAM 10065; assay: Assimilation test by intestinal microorganism; assay type: cell-based; conditions: 0.5 w/v % saccharide in PYF broth, 37° C., 96 hours; free of sugar: -
[20] = system: Escherichia coli IFO 3301; assay: Assimilation test by intestinal microorganism; assay type: cell-based; conditions: 0.5 w/v % saccharide in PYF broth, 37° C., 96 hours; free of sugar: -

OC[C@H]1O[C@H](O[C@H]2[C@H](O)[C@@H](O)C(O)O[C@@H]2CO)[C@H](O)[C@@H](O)[C@@H]1O (mixture of isomers) [Maltose, reference compound]
metabolised (Salivary amylase): 0%
degraded (in vitro): 0%
metabolised (Pancreatic juice amylase): 0.2%

OC[C@H]1O[C@H](OC[C@H]2O[C@H](OC[C@H]3O[C@H](OC[C@H]4OC(O)[C@H](O)[C@@H](O)[C@@H]4O)[C@H](O)[C@@H](O)[C@@H]3O)[C@H](O)[C@@H](O)[C@@H]2O)[C@H](O)[C@@H](O)[C@@H]1O (stereo partly drawn) [Isomaltotetraose, isomaltotetraose, reference compound]
Coloration degree (at a wavelength of 480 nm) [1]: 0.495

OC[C@H]1O[C@H](OC[C@H]2O[C@H](OC[C@H]3OC(O)[C@H](O)[C@@H](O)[C@@H]3O)[C@H](O)[C@@H](O)[C@@H]2O)[C@H](O)[C@@H](O)[C@@H]1O (stereo partly drawn) [Isomaltotriose, isomaltotriose, reference compound]
Coloration degree (at a wavelength of 480 nm) [1]: 0.642

OC[C@H]1O[C@H](OC[C@H]2O[C@H](O[C@H]3O[C@H](CO)[C@@H](O)[C@H](O)[C@H]3O)[C@H](O)[C@@H](O)[C@@H]2O)[C@H](O)[C@@H](O)[C@@H]1O [O-α-D-glucopyranosyl -(1→6)-α-D-glucopyranosyl α-D-glucopyranoside]
Judgement of assimilation (turbidity at 750 nm, ×5) [2]: +++ (0.3 or higher)
Judgement of assimilation (turbidity at 750 nm, ×5) [3]: + (0.15 or higher but less than 0.2)
Judgement of assimilation (turbidity at 750 nm, ×5) [4]: ± (0.1 or higher but less than 0.15)
LD50 (Acute toxicity test): ≥ 50000 mg/kg
Mortality at a highest possible dose (Acute toxicity test): no mouse died
metabolised (Pancreatic juice amylase): 0.5%

OC[C@H]1O[C@@](CO)(O[C@H]2O[C@H](CO)[C@@H](O)[C@H](O)[C@H]2O)[C@@H](O)[C@@H]1O [Sucrose, reference compound]
pH reduction / acid fermentation, in words [5]: rapid
pH at each fermentation time (min) ([5]; 0 min): 7.0
pH at each fermentation time (min) ([5]; 5 min): 4.3
pH at each fermentation time (min) ([5]; 15 min): 4.1
pH at each fermentation time (min) ([5]; 30 min): 4.0
pH at each fermentation time (min) ([5]; 60 min): 4.0
pH at each fermentation time (min) ([5]; 90 min): 4.0

O=C[C@H](O)[C@@H](O)[C@H](O)[C@H](O)CO [glucose, reference compound]
Judgement of assimilation (turbidity at 750 nm, ×5) [6]: +++ (0.3 or higher)
Judgement of assimilation (turbidity at 750 nm, ×5) [7]: +++ (0.3 or higher)
Judgement of assimilation (turbidity at 750 nm, ×5) [8]: ++ (0.2 or higher but less than 0.3)
Judgement of assimilation (turbidity at 750 nm, ×5) [9]: ++ (0.2 or higher but less than 0.3)
Judgement of assimilation (turbidity at 750 nm, ×5) [10]: ++ (0.2 or higher but less than 0.3)
Judgement of assimilation (turbidity at 750 nm, ×5) [2]: +++ (0.3 or higher)
Judgement of assimilation (turbidity at 750 nm, ×5) [11]: ++ (0.2 or higher but less than 0.3)
Judgement of assimilation (turbidity at 750 nm, ×5) [12]: ++ (0.2 or higher but less than 0.3)
Judgement of assimilation (turbidity at 750 nm, ×5) [13]: +++ (0.3 or higher)
Judgement of assimilation (turbidity at 750 nm, ×5) [14]: ++ (0.2 or higher but less than 0.3)
Judgement of assimilation (turbidity at 750 nm, ×5) [15]: + (0.15 or higher but less than 0.2)
Judgement of assimilation (turbidity at 750 nm, ×5) [16]: ++ (0.2 or higher but less than 0.3)
Judgement of assimilation (turbidity at 750 nm, ×5) [17]: +++ (0.3 or higher)
Judgement of assimilation (turbidity at 750 nm, ×5) [3]: +++ (0.3 or higher)
Judgement of assimilation (turbidity at 750 nm, ×5) [18]: + (0.15 or higher but less than 0.2)
Judgement of assimilation (turbidity at 750 nm, ×5) [19]: ++ (0.2 or higher but less than 0.3)
Judgement of assimilation (turbidity at 750 nm, ×5) [4]: + (0.15 or higher but less than 0.2)
Judgement of assimilation (turbidity at 750 nm, ×5) [20]: + (0.15 or higher but less than 0.2)

OC[C@H]1O[C@H](OC[C@H]2O[C@H](O[C@H]3O[C@H](CO[C@H]4O[C@H](CO)[C@@H](O)[C@H](O)[C@H]4O)[C@@H](O)[C@H](O)[C@H]3O)[C@H](O)[C@@H](O)[C@@H]2O)[C@H](O)[C@@H](O)[C@@H]1O [α-Isomaltosyl α-isomaltoside, O-α-D-glucopyranosyl -(1→6)-α-D-glucopyranosyl-O-α-D-glucopyranosyl-(1→6) -α-D-glucopyranoside]
Judgement of assimilation (turbidity at 750 nm, ×5) [2]: +++ (0.3 or higher)
Judgement of assimilation (turbidity at 750 nm, ×5) [17]: +++ (0.3 or higher)
Judgement of assimilation (turbidity at 750 nm, ×5) [3]: - (Less than 0.1)
Judgement of assimilation (turbidity at 750 nm, ×5) [4]: ± (0.1 or higher but less than 0.15)
LD50 (Acute toxicity test): ≥ 50000 mg/kg
metabolised (Pancreatic juice amylase): 0.3%
Solubility in solvent (Solubility in solvent; chloroform and ethyl acetate): Insoluble
Solubility in solvent (Solubility in solvent; methanol and ethanol): Hardly soluble

OC[C@H]1O[C@H](OC[C@H]2O[C@H](OC[C@H]3O[C@H](O[C@H]4O[C@H](CO)[C@@H](O)[C@H](O)[C@H]4O)[C@H](O)[C@@H](O)[C@@H]3O)[C@H](O)[C@@H](O)[C@@H]2O)[C@H](O)[C@@H](O)[C@@H]1O [α-Isomaltotriosyl α-glucoside, O-α-D-glucopyranosyl-(1→6)-O-α-D-glucopyranosyl-(1→6) α-D-glucopyranosyl α-D-glucopyranoside]
Judgement of assimilation (turbidity at 750 nm, ×5) [17]: +++ (0.3 or higher)
Judgement of assimilation (turbidity at 750 nm, ×5) [4]: ± (0.1 or higher but less than 0.15)
LD50 (Acute toxicity test): ≥ 50000 mg/kg
metabolised (Pancreatic juice amylase): 0.5%
